Data published in patent US6821980B1, “Substituted 5-benzyl-2,4-diaminopyrimidines” (Basilea Pharmaceutica AG, priority 1999, dated 2004).
≈ marks a conversion by molar mass, not a printed value. Read-outs that look alike come from different tables or passages of the source.

Assays:
[1] = molecular target: purified DHFR of strain 157/4696 of Staphylococcus aureus (Staphylococcus aureus, UniProt P13955); assay: biochemical
[2] = test system: Streptococcus pneumoniae 1/1; assay: MIC against Streptococcus pneumoniae 1/1; type: cell-based; conditions: Streptococcus pneumoniae 1/1, trimethoprim- and penicillin-resistant, serotype 6, clinical isolate; for MIC: read-out: MIC Sp1/1
[3] = molecular target: T1, purified DHFR of strain Sp1/1 of Streptococcus pneumoniae (Streptococcus pneumoniae serotype 4, UniProt Q54801); type: biochemical; conditions: IC50 against purified DHFR of strain Sp1/1
T1 sequence (Q54801 1-168 I100L): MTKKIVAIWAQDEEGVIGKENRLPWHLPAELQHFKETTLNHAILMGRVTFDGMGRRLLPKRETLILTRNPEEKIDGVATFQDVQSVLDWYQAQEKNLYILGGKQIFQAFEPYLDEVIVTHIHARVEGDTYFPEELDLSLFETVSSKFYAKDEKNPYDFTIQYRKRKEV

[4] = test system: Staphylococcus aureus 101; assay: MIC against Staphylococcus aureus 101; type: cell-based; conditions: Staphylococcus aureus 101, MRSA- and trimethoprim-resistant, clinical isolate; for MIC: read-out: MIC Sa101
[5] = Table 2, IC50 against purified DHFR of strain 157/4696 (highly trimethoprim-resistant; clinical isolate), read-out: DHFR Sa1

Chain of purified DHFR of strain 157/4696 of Staphylococcus aureus (P13955 whole entry): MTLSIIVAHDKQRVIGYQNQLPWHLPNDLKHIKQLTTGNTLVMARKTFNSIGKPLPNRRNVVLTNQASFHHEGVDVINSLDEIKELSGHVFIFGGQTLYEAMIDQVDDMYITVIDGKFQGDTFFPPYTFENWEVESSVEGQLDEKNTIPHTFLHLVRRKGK

Structure (SMILES)	IC50 [1, 5]	MIC Sp1/1 ([2]; Table 2)	IC50 ([3]; Table 2)	MIC Sa101 ([4]; Table 2)	IC50 [1]	MIC ([2]; Table 2)	MIC ([4]; Table 2)	MIC ([2]; Table 1)	IC50 ([3]; Table 1)	MIC ([4]; Table 1)
CCCS(=O)(=O)Oc1cc(Cc2cnc(N)nc2N)cc(OCC)c1-c1ccc(N)c(F)c1 [Example 32-e, Propane-1-sulphonic acid 4′-amino-4-(2,4-diamino-pyrimidin-5-ylmethyl)-6-ethoxy-3′-fluoro-4-ylmethyl-biphenyl-2-yl ester]	280 nM	1 µg/mL (≈ 2.1 µM)	6.8 nM	4 µg/mL (≈ 8.41 µM)						
CCCS(=O)(=O)Oc1cc(Cc2cnc(N)nc2N)cc(OCC)c1-c1cc(N)cc(F)c1 [Example 32-f, Propane-1-sulphonic acid 3′-amino-4-(2,4-diamino-pyrimidin-5-ylmethyl)-6-ethoxy-5′-fluoro-4-ylmethyl-biphenyl-2-yl ester]	420 nM	1 µg/mL (≈ 2.1 µM)	30 nM	4 µg/mL (≈ 8.41 µM)						
CCCS(=O)(=O)Oc1cc(Cc2cnc(N)nc2N)cc(OCC)c1-c1ccc(CN(C)C)c(N)c1 [Example 32-g, Propane-1-sulphonic acid 3′-amino-4-(2,4-diamino-pyrimidin-5-ylmethyl)-6-ethoxy-4′-dimethylaminomethyl-4-ylmethyl-biphenyl-2-yl ester]	68 nM	4 µg/mL (≈ 7.77 µM)	75 nM	8 µg/mL (≈ 15.5 µM)						
CCOc1cc(Cc2cnc(N)nc2N)cc(OS(=O)(=O)C(C)C)c1-c1ccc(OC)c(N)c1 [Example 33-a, Propane-2-sulphonic acid 3′-amino-4-(2,4-diamino-pyrimidin-5-ylmethyl)-6-ethoxy-4′-methoxy-4-ylmethyl-biphenyl-2-yl ester]			12 nM		65 nM	1 µg/mL (≈ 2.05 µM)	1 µg/mL (≈ 2.05 µM)			
CCOc1cc(Cc2cnc(N)nc2N)cc(OS(=O)(=O)C(C)C)c1-c1ccc(N)c(F)c1 [Example 33-b, Propane-2-sulphonic acid 4′-amino-4-(2,4-diamino-pyrimidin-5-ylmethyl)-6-ethoxy-3′-fluoro-4-ylmethyl-biphenyl-2-yl ester]			14 nM		260 nM	1 µg/mL (≈ 2.1 µM)	2 µg/mL (≈ 4.21 µM)			
CCOc1cc(Cc2cnc(N)nc2N)cc(OS(=O)(=O)C(C)C)c1-c1cc(N)cc(F)c1 [Example 33-c, Propane-2-sulphonic acid 3′-amino-4-(2,4-diamino-pyrimidin-5-ylmethyl)-6-ethoxy-5′-fluoro-4-ylmethyl-biphenyl-2-yl ester]	100 nM	2 µg/mL (≈ 4.21 µM)	14 nM	2 µg/mL (≈ 4.21 µM)						
CCOc1cc(Cc2cnc(N)nc2N)cc(OS(=O)(=O)C(C)C)c1-c1ccc(CN2CCOCC2)c(N)c1 [Example 33-d, Propane-2-sulphonic acid 3′-amino-4-(2,4-diamino-pyrimidin-5-ylmethyl)-6-ethoxy-4′-morpholinemethyl-4-ylmethyl-biphenyl-2-yl ester]	39 nM	2 µg/mL (≈ 3.59 µM)	9.1 nM	2 µg/mL (≈ 3.59 µM)						
CCOc1cc(Cc2cnc(N)nc2N)cc(OS(=O)(=O)C(C)C)c1-c1ccc(CN(C)C)c(N)c1 [Example 33-f, Propane-2-sulphonic acid 3′-amino-4-(2,4-diamino-pyrimidin-5-ylmethyl)-6-ethoxy-4′-dimethylaminomethyl-biphenyl-2-yl ester]			89 nM		42 nM	8 µg/mL (≈ 15.5 µM)	2 µg/mL (≈ 3.89 µM)			
CCOc1cc(Cc2cnc(N)nc2N)cc(OS(=O)(=O)C(C)C)c1-c1ccc(C)nc1 [Example 33-g, Propane-2-sulphonic acid 5-(2,4-diamino-pyrimidin-5-ylmethyl)-3-ethoxy-2-(6-methyl-pyridin-3-yl)-phenyl ester]			76 nM		980 nM	8 µg/mL (≈ 17.5 µM)	4 µg/mL (≈ 8.74 µM)			
CCOc1cc(Cc2cnc(N)nc2N)cc(OS(=O)(=O)C(C)C)c1-c1ccc(N)c(C)c1 [Example 33e, Propane-2-sulphonic acid 4′-amino-4-(2,4-diamino-pyrimidin-5-ylmethyl)-6-ethoxy-3′-methyl-biphenyl-2-yl ester]					200 nM			1 µg/mL (≈ 2.12 µM)	19 nM	1 µg/mL (≈ 2.12 µM)
CCOc1cc(Cc2cnc(N)nc2N)cc(OS(=O)(=O)C2CC2)c1-c1cccc(N)c1 [Example 34-a, Cyclopropanesulphonic acid 3′-amino-4-(2,4-diamino-pyrimidin-5-ylmethyl)-6-ethoxy-bilphenyl-2-yl ester]			9.2 nM		270 nM	1 µg/mL (≈ 2.2 µM)	2 µg/mL (≈ 4.39 µM)			
CCOc1cc(Cc2cnc(N)nc2N)cc(OS(=O)(=O)C2CC2)c1-c1ccc(NC)cc1 [Example 34-b, Cyclopropanesulphonic acid 4-(2,4-diamino-Ryrimidin-5-ylmethyl)-6-ethoxy-4′-methylamino-biphenyl-2-yl ester]			11 nM		210 nM	1 µg/mL (≈ 2.13 µM)	2 µg/mL (≈ 4.26 µM)			
CCOc1cc(Cc2cnc(N)nc2N)cc(OS(=O)(=O)C2CC2)c1-c1cc(N)cc(F)c1 [Example 34-c, Cyclopropanesulphonic acid 3′-amino-4-(2,4-diamino-pyrimidin-5-ylmethyl)-6-ethoxy-5′-fluoro-biphenyl-2-yl ester]			3.4 nM		190 nM	2 µg/mL (≈ 4.22 µM)	4 µg/mL (≈ 8.45 µM)			
CCOc1cc(Cc2cnc(N)nc2N)cc(OS(=O)(=O)C2CC2)c1-c1ccc(N)c(C)c1 [Example 34-d, Cyclopropanesulphonic acid 4′-amino-4-(2,4-diamino-pyrimidin-5-ylmethyl)-6-ethoxy-3′-methyl-biphenyl-2-yl ester]			2.4 nM		140 nM	1 µg/mL (≈ 2.13 µM)	2 µg/mL (≈ 4.26 µM)			
CCOc1cc(Cc2cnc(N)nc2N)cc(OS(=O)(=O)C2CC2)c1-c1ccc(CN2CCOCC2)c(N)c1 [Example 34-e, Cyclopropanesulphonic acid 3′-amino-4-(2,4-diamino-pyrimidin-5-ylmethyl)-6-ethoxy-4′-morpholin-4-ylmethyl-biphenyl-2-yl ester]			15 nM		140 nM	4 µg/mL (≈ 7.21 µM)	4 µg/mL (≈ 7.21 µM)			
CCOc1cc(Cc2cnc(N)nc2N)cc(OS(=O)(=O)C2CC2)c1-c1ccc(C)c(N)c1 [Example 34-f, Cyclopropanesulphonic acid 3′-amino-4-(2,4-diamino-pyrimidin-5-ylmethyl)-6-ethoxy-4′-methyl-biphenyl-2-yl ester]			9.5 nM		97 nM	1 µg/mL (≈ 2.13 µM)	2 µg/mL (≈ 4.26 µM)			
CCOc1cc(Cc2cnc(N)nc2N)cc(OS(=O)(=O)C(C)CC)c1-c1ccc(N)c(F)c1 (stereo not drawn) [Example 35-b, Butane-2-sulphonic acid 4′-amino-4-(2,4-diamino-pyrimidin-5-ylmethyl)-6-ethoxy-3′-fluoro-biphenyl-2-yl ester]			9 nM		130 nM	0.5 µg/mL (≈ 1.02 µM)	2 µg/mL (≈ 4.09 µM)			
CCOc1cc(Cc2cnc(N)nc2N)cc(OS(=O)(=O)C(C)CC)c1-c1ccc(CN2CCOCC2)c(N)c1 (stereo not drawn) [Example 35-c, Butane-2-sulphonic acid 3′-amino-4-(2,4-diamino-pyrimidin-5-ylmethyl)-6-ethoxy-4′-morpholin-4-ylmethyl-biphenyl-2-yl ester]			4.6 nM		43 nM	1 µg/mL (≈ 1.75 µM)	2 µg/mL (≈ 3.5 µM)			
